Results: patent US20130165520A1, “Hybrid Molecule Having Mixed Retinoic Acid Receptor Agonism and Histone Deacetylase Inhibitory Properties” (priority 2010, published 2013)

Experiments:
Format in all cases: cell-based
[1] = test system: normal human mammary epithelial cells (HMEC); experiment: Cell growth measurement
MCF-7 = experiment: Cell growth measurement; details: 10 days of treatment
Experimental: (§1) Finally, the effects of 3 on the growth of several breast cancer cell lines [MCF-7 (ER-positive, HER2-negative, RA-sensitive); SkBr3 (ER-negative, HER2-amplified, RA-sensitive); and the normally RA-insensitive MDA-MB-231 (ER-negative, HER2-negative, RA-insensitive)] was assessed.
(§2) Cell Growth Measurement: Cells were plated at 40 k cells per well (6-well plate) in DMEM 5% FBS-T for all cell lines except for I-IMEC cells which were plated in supplemented MEBM from Clonetics. Cells were treated every 48 hours and media was refreshed every 96 hours. After 10 days of treatment cells were harvested in 0.1N NaOH and growth was quantified by analyzing protein content of lysates with a Lowry assay.

MDA-MB-231 = experiment: Cell growth measurement; details: 10 days of treatment
Experimental: as §1, §2

SkBr3 = experiment: Cell growth measurement; details: 10 days of treatment
Experimental: as §1, §2

RARα = target: T1, RARα (Homo sapiens, UniProt P10276); experiment: BRET assay of agonist-dependent coactivator recruitment in transfected HEK293 cells; details: 1 μM, 2 hours treatment
T1 sequence (P10276 1-462): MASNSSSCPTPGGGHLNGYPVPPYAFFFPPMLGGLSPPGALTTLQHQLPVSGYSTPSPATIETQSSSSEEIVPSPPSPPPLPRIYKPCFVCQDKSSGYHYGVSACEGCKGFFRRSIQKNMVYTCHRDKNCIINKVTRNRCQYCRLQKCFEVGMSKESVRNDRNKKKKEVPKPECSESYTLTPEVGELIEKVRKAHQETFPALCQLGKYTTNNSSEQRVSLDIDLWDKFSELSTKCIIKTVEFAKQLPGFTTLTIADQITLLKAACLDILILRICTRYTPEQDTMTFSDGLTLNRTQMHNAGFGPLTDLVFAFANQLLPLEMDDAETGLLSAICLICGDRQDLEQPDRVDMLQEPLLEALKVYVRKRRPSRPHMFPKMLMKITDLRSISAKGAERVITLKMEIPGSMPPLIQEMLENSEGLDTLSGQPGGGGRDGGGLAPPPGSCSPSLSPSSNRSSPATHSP
Experimental: Hybrid 3 was prepared by treatment of the methyl ester of TTNN with excess hydroxylamine under alkaline conditions. The effects of hybrid 3 on RAR were initially assessed using a bioluminescence resonance energy transfer (BRET) assay. The BRET assay monitors agonist-dependent recruitment of coactivators to RARs in transfected HEK293 cells, chosen because of their high degree of transfectability. Energy transfer between luciferase (fused to RARα) and eGFP (fused to the LXXLL coactivator motif) occurs only when these moieties are juxtaposed by the RAR-LXXLL interaction, and can be detected by the emission of green fluorescence.
Cell transfection and BRET assays: HEK293 cells were grown to confluence, trypsinized and plated at a density of 500 k cells per well (12-well plates) in DMEM supplemented with 10% charcoal treated FBS (FBS-T). The following day, cells were transfected with PEI using 0.1 μg of RAR-RLuc vector and 1 μg of LXXLL-eGFP vector. 48 hours post-transfection, cells were treated with retinoids for 2 hours before taking BRET measurements as described previously.

[2] = test system: RAR target genes in MDA-MB-231 cell line; experiment: RT-qPCR analysis of RAR and HDACi target genes; details: MDA-MB-231 cell line
Description: (§3) The agonist activity of 3 through its effects on RAR target genes was subsequently analyzed (FIG. 3).

[3] = test system: RAR target genes in MCF-7 cell line; experiment: RT-qPCR analysis of RAR target genes
Description: as §3

Row | SMILES | effect on growth of normal cells [1] | effect on cell growth (MCF-7) | effect on cell growth (MDA-MB-231) | effect on cell growth (SkBr3) | RARα agonism (BRET signal) (RARα) | induction of RAR target genes (RT-qPCR) [2] | induction of RAR target genes (RT-qPCR) [3]
1 | O=C(CCCCCCC(=O)Nc1ccccc1)NO [SAHA, reference compound] | strong inhibition | shallow activity | modest decrease in cell growth | shallow activity | – | – | –
2 | CC1=C(/C=C/C(C)=C/C=C/C(C)=C/C(=O)O)C(C)(C)CCC1 [ATRA, all-trans-retinoic acid] | – | – | little to no effect | – | agonists of RARα | only induce RARB2 | no induction of either RARB1 or RARB2
3 | CN1c2ccccc2N=C(c2ccc(C(=O)O)cc2)c2cc3c(cc21)C(C)(C)CCC3(C)C [HX600] | – | – | – | – | no increase in BRET signal | – | –
4 | CC1(C)CCC(C)(C)c2cc(-c3ccc4cc(C(=O)O)ccc4c3)ccc21 [TTNN, 6-(5,6,7,8-tetrahydro-5,5,8,8-tetramethyl-2-naphthalenyl)-2-naphthalene carboxylic acid, reference compound] | – | inactive | little to no effect | inactive | agonists of RARα | only induce RARB2 | no induction of either RARB1 or RARB2
